Measurements from patent publication US11173146B2, “Selective activators of the intermediate conductance CA2+activated K+ channel KCa3.1 and their methods of use” (The Regents of the University of California, priority 2014, dated 2021).
Several values for one entry are separate records, joined by “and”; a condition that tells them apart may be missing. Equal entries are not always repeated. Entries after “also recorded” stand apart in the source; their conditions may differ. Where two headings read alike, the source gives them in different places.

Tests used:
logP = type: physicochemical
KCa3.1 [1] = biological target: T1, KCa3.1 (Homo sapiens, UniProt O15554+P0DP23); assay: Whole-cell patch-clamp KCa3.1 activation (QPatch, HEK-293); type: cell-based; design: host or cells: HEK-293
From the text: Cells, Cell lines and Clones. […] The cloning of hKCa2.3 (19 CAG repeats) and hKCa3.1 has been previously described (Wulff et al., 2000). The hKCa2.3 clone was later stably expressed in COS-7 cells at Aurora Biosciences Corp., San Diego, Calif. Cell lines stably expressing other mammalian ion channels were gifts from several sources: hKCa1.1 in HEK-293 cells (Andrew Tinker, University College London); hKV2.1 in HEK293 cells (James Trimmer, UC Davis); KV11.1 (HERG) in HEK-293 cells (Craig January, University of Wisconsin, Madison); hNaV1.4 in HEK-293 cells (Frank Lehmann-Horn, University of Ulm, Germany), hNaV1.5 in HEK-293 cells (Christopher Lossin, University of California Davis), and hCaV1.2 in HEK-293 cells (Franz Hofmann, Munich, Germany).
Electrophysiology. Experiments were conducted either manually with an EPC-10 amplifier (HEKA, Lambrecht/Pfalz, Germany) or on a QPatch-16 automated electrophysiology platform (Sophion Biosciences, Denmark). […] Patch pipettes were pulled from soda lime glass (micro-hematocrit tubes, Kimble Chase, Rochester, N.Y.) and had resistances of 2-3 MΩ. […] Free Ca^2+ concentrations were calculated with MaxChelator assuming a temperature of 25° C., a pH of 7.2 and an ionic strength of 160 mM. […] Na^+ aspartate Ringer was used as an external solution (in mM): 160 Na^+ aspartate, 4.5 KCl, 2 CaCl2, 1 MgCl2, 5 HEPES, pH 7.4, 290-310 mOsm. […] Reduction of both peak and tail current by the drug was determined. NaV1.7 currents were recorded with 30 ms pulses from −90 mV to −10 mV every 10 sec with a CsF-based pipette solution and normal Ringer as an external solution. CaV1.2 currents were elicited by 100-ms depolarizing pulses from −80 to 20 mV every 10 sec with a CsCl-based pipette solution and an external solution containing 30 mM BaCl2. Blockade of both Na^+ and Ca^2+ currents was determined as reduction of the current minimum.
For automated electrophysiology experiments cells were grown to ˜70% confluency, rinsed in sterile PBS containing 0.02% EDTA, and lifted with 2 mL of TrypLE™ Express (Gibco, Grand Island, N.Y.) for ˜2 min. When cells were rounded but not detached, they were dislodged by gentle tapping, suspended in DMEM, centrifuged and resuspended in 1 ml of external solution, placed into the Qfuge tube and resuspended in 150-200 μL extracellular solution after one additional spin on the QPatch. Whole-cell patch-clamp experiments were then carried out using disposable 16-channel planar patch chip plates (QPlates; patch hole diameter approximately 1 μm, resistance 2.00±0.02 MΩ). […] In order to avoid rejection of cells with large KCa3.1 currents the minimum seal resistance for whole-cell requirement was lowered to 0.001 GΩ. […] Following establishment of the whole-cell configuration, cells were held at −80 mV and KCa3.1, KCa2.1 or KCa2.2 currents elicited by a voltage protocol that held at −80 mV for 20 ms, stepped to −120 mV for 20 ms, ramped from −120 to 40 mV in 200 ms and then stepped back to −120 mV for 20 ms. This pulse protocol was applied every 10 s. […] NaV1.2 currents from N1E-115 cells, NaV1.4 and NaV1.5 currents from stably transfected HEK cells were recorded with 20 ms pulses from −90 mV to 0 mV every 10 sec with a KF-based internal solution and normal Ringer as an external solution. Current slopes (in ampere per sec) were measured using the SophionQPatch software and exported to Microsoft Excel and Origin 7.0 (OriginLab Corp. MA) for analysis. […] Data fitting to the Hill equation to obtain EC50 and IC50 values was performed with Origin 7.0. Data are expressed as mean±SD.

KCa3.1−/− mice = assay: Telemetry in KCa3.1−/− mice; conditions: 100 mg/kg i.p.
KCa3.1 [2] = biological target: T1, KCa3.1; assay: Inside-out patch Ca2+ concentration-response of KCa3.1

Cc1cc2nc(N)oc2c2ccccc12 [SKA-121, 5-Methylnaphtho[2,1-d]oxazol-2-amine]
logP (logP): 1.79
maximal KCa3.1 current increase (KCa3.1 [1]; 250 nM free Ca2+): roughly 30 fold
EC50 (KCa3.1 [1]; 250 nM free Ca2+, read-out: EC50 for KCa3.1 activation): 109 nM and 111 nM and ~110 nM
EC50 (KCa3.1 [1]; Appendix A, read-out: KCa3.1 EC50 (converted)): 200 nM
Hill coefficient nH, KCa3.1 concentration-response curve (KCa3.1 [1]; FIG. 4 legend): 3.0
selectivity for KCa3.1 over the three KCa2 channels (KCa3.1 [1]; KCa2.1, KCa2.2 and KCa2.3): 40-80 fold
EC50 (KCa3.1 [1]; Table 1, 250 nM free Ca2+, read-out: KCa3.1 EC50 (converted)): 109 nM
selectivity for KCa3.1 over KCa2.3 (KCa3.1 [1]; ratio of EC50 values): ~40 fold
HR (KCa3.1−/− mice): did not; also recorded: no significant effects
MAP (KCa3.1−/− mice): did not; also recorded: no significant effects
maximal achievable KCa3.1 current (KCa3.1 [2]; 1 μM SKA-121, at 1 and 10 μM Ca2+): increased the maximal achievable current
Hill coefficient of the Ca2+ concentration-response curve (KCa3.1 [2]; in presence of 1 μM SKA-121): ~3
